Experimental findings from patent publication US12559506B2, “Indazole based compounds and associated methods of use” (Arvinas Operations, Inc., priority 2021, dated 2026) are described below.

One experiment has as its target T1, G2019S LRRK2 (Homo sapiens, UniProt Q5S007, G2019S).
T1 construct: expressed in transfected cells; host or cells: HEK293 (ATCC CRL-1573), transient transfection, mammalian expression vector with ubiquitin promoter
In words: LRRK2 degradation assay, HiBit-tagged G2019S LRRK2 expressed from plasmid in HEK293 cells (Nano-Glo Dual-Luciferase). The experiment is classed as cell-based. The following applies: 24 hours. In a few lines: (§1)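 Degradation read as Nano-Glo HiBiT signal over firefly luciferase (cell number/viability) after 24 h compound exposure of transiently transfected HEK293 expressing C-terminally HiBiT-tagged wildtype or G2019S LRRK2. Data as % DMSO; DC50/Dmax fitted per plate, triplicate plates repeated twice.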

A further experiment concerns the target T2, wildtype LRRK2 (Homo sapiens, UniProt Q5S007).
T2 construct: expressed in transfected cells; host or cells: HEK293 (ATCC CRL-1573), transient transfection, mammalian expression vector with ubiquitin promoter
The experiment is described as follows: LRRK2 degradation assay, HiBit-tagged wildtype LRRK2 expressed from plasmid in HEK293 cells (Nano-Glo Dual-Luciferase). The experiment is classed as cell-based. The settings on record: 24 hours; for Dmax: read-out: **WT Dmax (%); for DC50: read-out: *WT DC50. The procedure, abridged:
as §1
(The HiBiT peptide binds its large partner to form an active luciferase.)

Setting [1] is: HiBit-tagged G2019S LRRK2 in HEK293 cells.
The mark [2] stands for this setting: HiBit-tagged wildtype LRRK2 in HEK293 cells.
Setting [3] is: HiBit-tagged G2019S LRRK2, HEK293 cells.
The mark [4] stands for this setting: HiBit-tagged wildtype LRRK2, HEK293 cells.

Where two headings read alike, the source gives them in different places.

T1 sequence (Q5S007 whole entry G2019S): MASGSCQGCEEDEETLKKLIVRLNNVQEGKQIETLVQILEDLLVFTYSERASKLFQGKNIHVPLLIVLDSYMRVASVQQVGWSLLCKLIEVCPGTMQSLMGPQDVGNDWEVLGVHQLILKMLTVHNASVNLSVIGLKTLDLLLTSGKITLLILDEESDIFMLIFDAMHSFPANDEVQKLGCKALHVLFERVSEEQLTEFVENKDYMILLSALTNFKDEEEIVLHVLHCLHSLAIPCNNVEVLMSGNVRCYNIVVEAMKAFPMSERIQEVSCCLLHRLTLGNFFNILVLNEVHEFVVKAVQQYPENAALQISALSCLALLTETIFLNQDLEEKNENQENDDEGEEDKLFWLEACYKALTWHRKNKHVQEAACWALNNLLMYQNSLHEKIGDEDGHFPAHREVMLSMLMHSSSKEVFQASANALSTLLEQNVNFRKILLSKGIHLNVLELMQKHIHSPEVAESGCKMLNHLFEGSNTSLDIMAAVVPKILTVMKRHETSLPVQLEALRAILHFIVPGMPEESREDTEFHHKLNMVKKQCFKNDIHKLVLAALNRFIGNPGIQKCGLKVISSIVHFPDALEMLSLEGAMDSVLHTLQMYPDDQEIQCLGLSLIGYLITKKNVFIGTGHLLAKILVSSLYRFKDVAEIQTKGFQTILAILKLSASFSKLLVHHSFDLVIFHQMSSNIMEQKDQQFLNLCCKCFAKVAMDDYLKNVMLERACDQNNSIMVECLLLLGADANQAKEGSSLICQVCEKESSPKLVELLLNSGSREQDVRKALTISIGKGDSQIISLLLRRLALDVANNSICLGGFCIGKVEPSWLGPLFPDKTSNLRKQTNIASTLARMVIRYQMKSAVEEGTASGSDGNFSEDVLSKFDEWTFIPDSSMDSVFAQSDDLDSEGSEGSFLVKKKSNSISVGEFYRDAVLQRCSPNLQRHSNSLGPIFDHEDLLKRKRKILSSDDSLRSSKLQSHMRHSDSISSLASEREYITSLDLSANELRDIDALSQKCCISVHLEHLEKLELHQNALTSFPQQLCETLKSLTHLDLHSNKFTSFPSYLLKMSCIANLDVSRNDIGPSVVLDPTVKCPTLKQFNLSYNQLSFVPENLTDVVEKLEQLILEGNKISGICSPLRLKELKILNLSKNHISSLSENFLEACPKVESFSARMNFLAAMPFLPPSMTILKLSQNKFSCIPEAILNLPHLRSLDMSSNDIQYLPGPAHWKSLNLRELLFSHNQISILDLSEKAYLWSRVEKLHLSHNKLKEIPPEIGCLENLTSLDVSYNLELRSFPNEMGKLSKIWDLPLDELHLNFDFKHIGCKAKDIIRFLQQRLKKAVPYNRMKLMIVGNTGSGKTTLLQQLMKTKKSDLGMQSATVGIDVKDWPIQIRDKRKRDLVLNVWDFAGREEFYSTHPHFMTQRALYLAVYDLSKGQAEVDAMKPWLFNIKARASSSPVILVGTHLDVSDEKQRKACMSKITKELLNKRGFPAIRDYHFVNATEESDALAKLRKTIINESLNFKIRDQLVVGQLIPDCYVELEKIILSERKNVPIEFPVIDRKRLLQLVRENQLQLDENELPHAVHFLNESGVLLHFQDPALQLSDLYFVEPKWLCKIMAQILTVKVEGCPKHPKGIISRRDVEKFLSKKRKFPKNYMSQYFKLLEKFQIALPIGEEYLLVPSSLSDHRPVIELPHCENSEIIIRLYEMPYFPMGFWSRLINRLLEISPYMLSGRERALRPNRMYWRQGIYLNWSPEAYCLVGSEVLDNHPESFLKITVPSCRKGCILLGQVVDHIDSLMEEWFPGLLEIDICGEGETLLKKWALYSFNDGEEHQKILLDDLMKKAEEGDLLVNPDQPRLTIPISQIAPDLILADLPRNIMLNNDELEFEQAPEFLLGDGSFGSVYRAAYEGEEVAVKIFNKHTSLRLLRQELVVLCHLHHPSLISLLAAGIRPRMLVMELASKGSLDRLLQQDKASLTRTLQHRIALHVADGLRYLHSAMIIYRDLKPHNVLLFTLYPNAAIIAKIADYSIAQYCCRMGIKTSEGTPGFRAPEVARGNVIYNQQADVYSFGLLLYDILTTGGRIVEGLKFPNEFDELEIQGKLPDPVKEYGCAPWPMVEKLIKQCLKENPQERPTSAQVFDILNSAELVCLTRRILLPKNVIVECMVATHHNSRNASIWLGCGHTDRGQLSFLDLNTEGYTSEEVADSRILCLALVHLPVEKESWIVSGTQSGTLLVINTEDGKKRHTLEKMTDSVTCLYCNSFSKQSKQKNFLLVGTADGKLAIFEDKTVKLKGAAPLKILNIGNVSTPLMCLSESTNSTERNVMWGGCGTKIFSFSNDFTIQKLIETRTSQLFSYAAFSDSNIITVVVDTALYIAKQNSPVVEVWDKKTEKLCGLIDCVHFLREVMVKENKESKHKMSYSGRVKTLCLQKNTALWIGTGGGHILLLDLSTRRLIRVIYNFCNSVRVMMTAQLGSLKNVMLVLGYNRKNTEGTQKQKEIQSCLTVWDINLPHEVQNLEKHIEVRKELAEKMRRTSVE
T2 sequence (Q5S007 whole entry): as the sequence (Q5S007 whole entry G2019S) above, with S2019G counted along it

The term DC50 denotes the concentration at which degradation of the target reaches its halfway point. One may read the Dmax as the greatest extent of degradation seen. With `C[C@H]1CN(c2cc(-c3n[nH]c4ccc(OC5(C)CC5)cc34)ncn2)CCN1CC1CCN(CC2(F)CCN(c3ccc4c(c3)C(=O)N(C3CCC(=O)NC3=O)C4=O)CC2)CC1` (stereo partly drawn) [Compound 70, 2-(2,6-dioxo-3-piperidyl)-5-[4-fluoro-4-[[4-[[(2S)-2-methyl-4-[6-[5-(1-methylcyclopropoxy)-1H-indazol-3-yl]pyrimidin-4-yl]piperazin-1-yl]methyl]-1-piperidyl]methyl]-1-piperidyl]isoindoline-1,3-dione], on G2019S LRRK2 (setting [1]), the DC50 is under 0.01 µM and the Dmax is under 50%. On wildtype LRRK2 (setting [2]), the Dmax was under 50% and the DC50 was under 0.01 µM.
As to `CC1(Oc2ccc3[nH]nc(-c4ccnc(N5CCC(CN6CCN(CC7CCN(c8ccc9c(c8)C(=O)N(C8CCC(=O)NC8=O)C9=O)CC7)CC6)CC5)c4)c3c2)CC1` (stereo not drawn) [Compound 78, 2-(2,6-dioxo-3-piperidyl)-5-[4-[[4-[[1-[4-[5-(1-methylcyclopropoxy)-1H-indazol-3-yl]-2-pyridyl]-4-piperidyl]methyl]piperazin-1-yl]methyl]-1-piperidyl]isoindoline-1,3-dione], at G2019S LRRK2 (setting [1]), the DC50 was under 0.01 µM and the Dmax lay within 50 to 70%. On wildtype LRRK2 (setting [2]), the Dmax is 50 to 70% and the DC50 is under 0.01 µM.
As to `C[C@H]1CN(c2cc(-c3n[nH]c4ccc(OC5(C)CC5)cc34)ncn2)CCN1CC1CCN(CCCNc2cccc3c2CN(C2CCC(=O)NC2=O)C3=O)CC1` (stereo partly drawn) [Compound 142, 3-[4-[3-[4-[[(2S)-2-methyl-4-[6-[5-(1-methylcyclopropoxy)-1H-indazol-3-yl]pyrimidin-4-yl]piperazin-1-yl]methyl]-1-piperidyl]propylamino]-1-oxo-isoindolin-2-yl]piperidine-2,6-dione], at G2019S LRRK2 (setting [1]), the DC50 lay within 0.01 to 0.05 µM and the Dmax was under 50%. At wildtype LRRK2 (setting [2]), the Dmax was under 50% and the DC50 lay within 0.05 to 0.1 µM.
As for `CC1(Oc2ccc3[nH]nc(-c4cc(N5CC(CC6CCN(CC7CCN(c8ccc9c(c8)C(=O)N(C8CCC(=O)NC8=O)C9=O)CC7)CC6)C5)ncn4)c3c2)CC1` (stereo not drawn) [Compound 164, 2-(2,6-dioxo-3-piperidyl)-5-[4-[[4-[[1-[6-[5-(1-methylcyclopropoxy)-1H-indazol-3-yl]pyrimidin-4-yl]azetidin-3-yl]methyl]-1-piperidyl]methyl]-1-piperidyl]isoindoline-1,3-dione], the DC50 at G2019S LRRK2 (setting [3]) and on wildtype LRRK2 (setting [4]) was under 0.01 µM in each case. In addition, the results for the Dmax at G2019S LRRK2 (setting [3]) and on wildtype LRRK2 (setting [4]) were at least 70% and 50 to 70%, respectively.
`CC1(Oc2ccc3[nH]nc(-c4cc(N5CCN(CC6CCN(C(=O)C7CCN(c8ccc9c(c8)C(=O)N(C8CCC(=O)NC8=O)C9=O)CC7)CC6)CC5)ncn4)c3c2)CC1` (stereo not drawn) [Compound 90, 2-(2,6-dioxopiperidin-3-yl)-5-(4-{4-[(4-{6-[5-(1-methylcyclopropoxy)-1H-indazol-3-yl]pyrimidin-4-yl}piperazin-1-yl)methyl]piperidine-1-carbonyl}piperidin-1-yl)-2,3-dihydro-1H-isoindole-1,3-dione]: the DC50 at G2019S LRRK2 (setting [1]) and on wildtype LRRK2 (setting [2]) was under 0.01 µM throughout. For the same compound, the Dmax is 50 to 70% on G2019S LRRK2 (setting [1]) and under 50% on wildtype LRRK2 (setting [2]).
On G2019S LRRK2 (setting [1]), `CC1(Oc2ccc3[nH]nc(-c4cc(N5CCN(CC6(F)CCN(CC7CCN(c8ccc9c(c8)C(=O)N(C8CCC(=O)NC8=O)C9=O)CC7)CC6)CC5)ncn4)c3c2)CC1` (stereo not drawn) [Compound 79, 2-(2,6-dioxo-3-piperidyl)-5-[4-[[4-fluoro-4-[[4-[6-[5-(1-methylcyclopropoxy)-1H-indazol-3-yl]pyrimidin-4-yl]piperazin-1-yl]methyl]-1-piperidyl]methyl]-1-piperidyl]isoindoline-1,3-dione] returned a DC50 of under 0.01 µM and a Dmax of 50 to 70%. On wildtype LRRK2 (setting [2]), the Dmax was under 50% and the 50% degradation concentration (DC50) was under 0.01 µM.
At G2019S LRRK2 (setting [1]), `CC1(Oc2ccc3[nH]nc(-c4cc(N5CCC(CN6CC[C@@H](CN7CCN(c8ccc9c(c8)C(=O)N(C8CCC(=O)NC8=O)C9=O)CC7)C6)CC5)ncn4)c3c2)CC1` (stereo partly drawn) [Compound 115, 2-(2,6-dioxopiperidin-3-yl)-5-(4-{[(3R)-1-[(1-{6-[5-(1-methylcyclopropoxy)-1H-indazol-3-yl]pyrimidin-4-yl}piperidin-4-yl)methyl]pyrrolidin-3-yl]methyl}piperazin-1-yl)-2,3-dihydro-1H-isoindole-1,3-dione] registered a DC50 of under 0.01 µM and a Dmax of 50 to 70%. Further, at wildtype LRRK2 (setting [2]), the Dmax lay within 50 to 70% and the DC50 was under 0.01 µM.
Turning to `CC1(Oc2ccc3n[nH]c(-c4cc(N5CCN(CC6(F)CCN(CC7CN(c8ccc9c(c8)C(=O)N(C8CCC(=O)NC8=O)C9=O)C7)CC6)CC5)ncn4)c3c2)CC1` (stereo not drawn) [Compound 135, 2-(2,6-dioxo-3-piperidyl)-5-[3-[[4-fluoro-4-[[4-[6-[5-(1-methylcyclopropoxy)-2H-indazol-3-yl]pyrimidin-4-yl]piperazin-1-yl]methyl]-1-piperidyl]methyl]azetidin-1-yl]isoindoline-1,3-dione], on G2019S LRRK2 (setting [1]), the DC50 was under 0.01 µM and the Dmax lay in the range of 50 to 70%. For the same compound, at wildtype LRRK2 (setting [2]), the Dmax is under 50% and the DC50 was under 0.01 µM.
On G2019S LRRK2 (setting [1]), `C[C@H]1CN(c2cc(-c3n[nH]c4cc(F)c(OC5(C)CC5)cc34)ncn2)CCN1CC1CCN(CC2CCN(c3ccc4c(c3)C(=O)N(C3CCC(=O)NC3=O)C4=O)CC2)CC1` (stereo partly drawn) [Compound 71, 2-(2,6-dioxopiperidin-3-yl)-5-{4-[(4-{[(2S)-4-{6-[6-fluoro-5-(1-methylcyclopropoxy)-1H-indazol-3-yl]pyrimidin-4-yl}-2-methylpiperazin-1-yl]methyl}piperidin-1-yl)methyl]piperidin-1-yl}-2,3-dihydro-1H-isoindole-1,3-dione] registered a 50% degradation concentration (DC50) of under 0.01 µM and a Dmax of under 50%. At wildtype LRRK2 (setting [2]), the Dmax lay within 50 to 70% and the DC50 is under 0.01 µM.
For the compound `C[C@H]1CN(c2cc(-c3[nH]nc4ccc(OC5(C)CC5)cc34)ncn2)CCN1CC1CCN(CC2CCN(c3cccc4c3CN(C3CCC(=O)NC3=O)C4=O)CC2)CC1` (stereo partly drawn) [Compound 145, 3-[4-[4-[[4-[[(2S)-2-methyl-4-[6-[5-(1-methylcyclopropoxy)-2H-indazol-3-yl]pyrimidin-4-yl]piperazin-1-yl]methyl]-1-piperidyl]methyl]-1-piperidyl]-1-oxo-isoindolin-2-yl]piperidine-2,6-dione], the DC50 on G2019S LRRK2 (setting [1]) and at wildtype LRRK2 (setting [2]) was under 0.01 µM in each case. Further, the Dmax is 50 to 70% on G2019S LRRK2 (setting [1]) and under 50% on wildtype LRRK2 (setting [2]).
For the compound `CC1(Oc2ccc3[nH]nc(-c4ccnc(N5CCN(C[C@H]6CC[C@H](CN7CCN(c8ccc9c(c8)C(=O)N(C8CCC(=O)NC8=O)C9=O)CC7)CC6)CC5)c4)c3c2)CC1` (stereo partly drawn) [Compound 102, 2-(2,6-dioxopiperidin-3-yl)-5-(4-{[(1r,4r)-4-[(4-{4-[5-(1-methylcyclopropoxy)-1H-indazol-3-yl]pyridin-2-yl}piperazin-1-yl)methyl]cyclohexyl]methyl}piperazin-1-yl)-2,3-dihydro-1H-isoindole-1,3-dione], at G2019S LRRK2 (setting [1]), the DC50 is 0.01 to 0.05 µM and the Dmax was under 50%. For the same compound, on wildtype LRRK2 (setting [2]), the Dmax was under 50% and the DC50 lay in the range of 0.01 to 0.05 µM.
Consider `CC1(Oc2ccc3[nH]nc(-c4cc(N5CCC(O[C@@H]6CCN(CC7CCN(c8ccc9c(c8)C(=O)N(C8CCC(=O)NC8=O)C9=O)CC7)C6)CC5)ncn4)c3c2)CC1` (stereo partly drawn) [Compound 116, 2-(2,6-dioxo-3-piperidyl)-5-[4-[[(3R)-3-[[1-[6-[5-(1-methylcyclopropoxy)-1H-indazol-3-yl]pyrimidin-4-yl]-4-piperidyl]oxy]pyrrolidin-1-yl]methyl]-1-piperidyl]isoindoline-1,3-dione], for which, at G2019S LRRK2 (setting [1]), the DC50 is under 0.01 µM and the Dmax was under 50%. At wildtype LRRK2 (setting [2]), the Dmax lay within 50 to 70% and the DC50 was under 0.01 µM.
On G2019S LRRK2 (setting [3]), `CC1(Oc2ccc3[nH]nc(-c4cc(N5CCN(C[C@H]6CN(CC7CCN(c8ccc9c(c8)C(=O)N(C8CCC(=O)NC8=O)C9=O)CC7)CCO6)CC5)ncn4)c3c2)CC1` (stereo partly drawn) [Compound 157, 2-(2,6-dioxopiperidin-3-yl)-5-(4-{[(2S)-2-[(4-{6-[5-(1-methylcyclopropoxy)-1H-indazol-3-yl]pyrimidin-4-yl}piperazin-1-yl)methyl]morpholin-4-yl]methyl}piperidin-1-yl)-2,3-dihydro-1H-isoindole-1,3-dione] registered a DC50 of under 0.01 µM and a Dmax of at least 70%. For the same compound, at wildtype LRRK2 (setting [4]), the Dmax lay in the range of 50 to 70% and the DC50 was under 0.01 µM.
As for `CC1(Oc2ccc3[nH]nc(-c4cc(N5CCN(C[C@@H]6CN(CCC7CCN(c8ccc9c(c8)C(=O)N(C8CCC(=O)NC8=O)C9=O)CC7)CCO6)CC5)ncn4)c3c2)CC1` (stereo partly drawn) [Compound 158, 2-(2,6-dioxo-3-piperidyl)-5-[4-[2-[(2R)-2-[[4-[6-[5-(1-methylcyclopropoxy)-1H-indazol-3-yl]pyrimidin-4-yl]piperazin-1-yl]methyl]morpholin-4-yl]ethyl]-1-piperidyl]isoindoline-1,3-dione], the DC50 at G2019S LRRK2 (setting [3]) and at wildtype LRRK2 (setting [4]) was under 0.01 µM in each case. In addition, the Dmax on G2019S LRRK2 (setting [3]) and on wildtype LRRK2 (setting [4]) was at least 70% each time.
On to `CC1(Oc2ccc3[nH]nc(-c4cc(N5CCC(CN6CCN(CC7CCN(c8cc9c(cc8F)C(=O)N(C8CCC(=O)NC8=O)C9=O)CC7)CC6)CC5)ncn4)c3c2)CC1` (stereo not drawn) [Compound 107, 2-(2,6-dioxo-3-piperidyl)-5-fluoro-6-[4-[[4-[[1-[6-[5-(1-methylcyclopropoxy)-1H-indazol-3-yl]pyrimidin-4-yl]-4-piperidyl]methyl]piperazin-1-yl]methyl]-1-piperidyl]isoindoline-1,3-dione], for which, on G2019S LRRK2 (setting [1]), the 50% degradation concentration (DC50) was 0.01 to 0.05 µM and the Dmax lay in the range of 50 to 70%. In addition, on wildtype LRRK2 (setting [2]), the Dmax was under 50% and the DC50 was under 0.01 µM.
